According to ChEMBL document CHEMBL5291721, “A preclinical secondary pharmacology resource illuminates target-adverse drug reaction associations of marketed drugs” (Nat Commun, 2023):

How the values were obtained:
Bile salt export pump = Bile salt export pump (Homo sapiens, UniProt O95342); format: functional
[1] = molecular target: Voltage-gated inwardly rectifying potassium channel KCNH2 (Homo sapiens, UniProt Q12809); format: functional; details: read-out: AC50
[2] = molecular target: T1, 5-hydroxytryptamine receptor 3A (Homo sapiens, UniProt P46098); format: functional
T1 sequence (P46098 whole entry): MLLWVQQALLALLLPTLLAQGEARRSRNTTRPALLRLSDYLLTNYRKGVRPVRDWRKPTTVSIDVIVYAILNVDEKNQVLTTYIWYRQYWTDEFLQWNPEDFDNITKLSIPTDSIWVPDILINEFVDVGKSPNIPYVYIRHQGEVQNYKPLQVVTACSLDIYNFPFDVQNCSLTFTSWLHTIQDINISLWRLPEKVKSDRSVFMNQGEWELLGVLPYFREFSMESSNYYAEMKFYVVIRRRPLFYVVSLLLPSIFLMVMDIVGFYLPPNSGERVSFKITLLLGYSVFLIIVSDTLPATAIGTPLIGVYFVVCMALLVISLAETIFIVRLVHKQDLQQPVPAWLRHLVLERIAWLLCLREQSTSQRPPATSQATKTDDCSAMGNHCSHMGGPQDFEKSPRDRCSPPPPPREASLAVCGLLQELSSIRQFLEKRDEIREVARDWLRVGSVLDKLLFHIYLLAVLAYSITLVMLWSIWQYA

[3] = molecular target: Delta-type opioid receptor (Homo sapiens, UniProt P41143)
Delta-type opioid receptor, sequence (P41143 whole entry): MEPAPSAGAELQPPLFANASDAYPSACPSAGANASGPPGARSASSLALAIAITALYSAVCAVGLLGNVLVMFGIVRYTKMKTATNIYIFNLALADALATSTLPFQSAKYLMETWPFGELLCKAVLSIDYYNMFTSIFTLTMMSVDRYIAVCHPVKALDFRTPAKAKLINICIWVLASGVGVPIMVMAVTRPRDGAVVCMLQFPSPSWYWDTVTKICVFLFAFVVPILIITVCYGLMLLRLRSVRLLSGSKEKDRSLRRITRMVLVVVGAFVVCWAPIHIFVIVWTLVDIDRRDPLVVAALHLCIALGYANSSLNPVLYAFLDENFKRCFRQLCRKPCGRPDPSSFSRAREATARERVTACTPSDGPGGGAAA

[4] = molecular target: T2, Alpha-2C adrenergic receptor (Homo sapiens, UniProt P18825); format: functional
T2 sequence (P18825 whole entry): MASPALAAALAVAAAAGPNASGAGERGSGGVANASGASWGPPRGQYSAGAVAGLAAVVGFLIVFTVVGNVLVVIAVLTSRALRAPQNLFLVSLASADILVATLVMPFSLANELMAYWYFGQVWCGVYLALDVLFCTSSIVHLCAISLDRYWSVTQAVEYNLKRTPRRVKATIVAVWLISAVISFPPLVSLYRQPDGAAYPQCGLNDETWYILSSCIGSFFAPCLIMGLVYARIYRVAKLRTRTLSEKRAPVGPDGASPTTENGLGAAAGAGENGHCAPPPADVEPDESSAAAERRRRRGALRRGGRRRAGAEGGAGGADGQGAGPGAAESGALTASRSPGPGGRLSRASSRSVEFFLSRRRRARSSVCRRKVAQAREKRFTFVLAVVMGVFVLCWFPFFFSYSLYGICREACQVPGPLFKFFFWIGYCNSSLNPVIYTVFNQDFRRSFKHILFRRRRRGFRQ

[5] = molecular target: Sodium-dependent dopamine transporter (Homo sapiens, UniProt Q01959)
Adenosine receptor A3 = molecular target: T3, Adenosine receptor A3 (Homo sapiens, UniProt P0DMS8)
T3 sequence (P0DMS8 whole entry): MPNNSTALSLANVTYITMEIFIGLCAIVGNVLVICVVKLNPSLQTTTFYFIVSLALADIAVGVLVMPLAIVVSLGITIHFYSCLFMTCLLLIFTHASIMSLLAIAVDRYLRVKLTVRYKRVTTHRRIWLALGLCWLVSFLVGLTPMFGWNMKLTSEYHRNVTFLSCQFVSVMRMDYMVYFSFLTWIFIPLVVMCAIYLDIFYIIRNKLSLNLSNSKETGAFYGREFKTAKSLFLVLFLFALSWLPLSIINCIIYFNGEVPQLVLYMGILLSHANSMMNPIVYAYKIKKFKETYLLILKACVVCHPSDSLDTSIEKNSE

[6] = molecular target: cGMP-inhibited 3',5'-cyclic phosphodiesterase 3A (Homo sapiens, UniProt Q14432); format: functional
Motilin receptor = Motilin receptor (Homo sapiens, UniProt O43193)
Motilin receptor, sequence (O43193 whole entry): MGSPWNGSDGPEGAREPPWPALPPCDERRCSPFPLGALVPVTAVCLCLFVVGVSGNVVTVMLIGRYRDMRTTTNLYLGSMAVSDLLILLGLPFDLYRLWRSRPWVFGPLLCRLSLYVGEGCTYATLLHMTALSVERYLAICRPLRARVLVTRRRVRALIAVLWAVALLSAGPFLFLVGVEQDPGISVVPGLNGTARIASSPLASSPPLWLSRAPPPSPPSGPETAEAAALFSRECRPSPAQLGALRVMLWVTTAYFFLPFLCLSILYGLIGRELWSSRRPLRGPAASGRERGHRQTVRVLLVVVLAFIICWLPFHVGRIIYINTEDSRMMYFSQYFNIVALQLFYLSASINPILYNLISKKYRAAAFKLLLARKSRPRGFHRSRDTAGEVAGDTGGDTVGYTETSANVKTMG

[7] = molecular target: 3',5'-cyclic-AMP phosphodiesterase 4D (Homo sapiens, UniProt Q08499); format: functional
3',5'-cyclic-AMP phosphodiesterase 4D, sequence (Q08499 whole entry): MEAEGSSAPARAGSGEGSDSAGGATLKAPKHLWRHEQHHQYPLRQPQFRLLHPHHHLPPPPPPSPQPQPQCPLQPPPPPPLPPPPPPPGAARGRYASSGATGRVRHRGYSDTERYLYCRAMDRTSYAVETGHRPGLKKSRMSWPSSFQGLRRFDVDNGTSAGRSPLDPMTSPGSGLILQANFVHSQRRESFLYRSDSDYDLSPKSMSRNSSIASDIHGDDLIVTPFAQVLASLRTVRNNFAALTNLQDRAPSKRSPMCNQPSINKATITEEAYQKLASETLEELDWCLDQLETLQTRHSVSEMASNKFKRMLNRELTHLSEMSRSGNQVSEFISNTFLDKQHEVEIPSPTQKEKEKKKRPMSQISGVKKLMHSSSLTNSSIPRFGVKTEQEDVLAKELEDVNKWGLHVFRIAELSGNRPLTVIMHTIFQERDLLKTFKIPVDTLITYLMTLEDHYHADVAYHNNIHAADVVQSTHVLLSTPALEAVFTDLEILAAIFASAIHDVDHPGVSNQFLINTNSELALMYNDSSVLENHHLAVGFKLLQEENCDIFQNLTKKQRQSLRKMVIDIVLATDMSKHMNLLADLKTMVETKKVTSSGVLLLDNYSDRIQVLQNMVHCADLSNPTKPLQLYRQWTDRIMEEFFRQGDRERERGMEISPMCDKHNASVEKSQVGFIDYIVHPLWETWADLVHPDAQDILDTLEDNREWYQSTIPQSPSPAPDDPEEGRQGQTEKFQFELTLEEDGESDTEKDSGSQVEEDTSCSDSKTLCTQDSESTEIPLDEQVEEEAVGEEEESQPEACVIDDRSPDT

[8] = molecular target: 5-hydroxytryptamine receptor 2B (Homo sapiens, UniProt P41595); format: functional, cell-based
5-hydroxytryptamine receptor 2B, sequence (P41595 whole entry): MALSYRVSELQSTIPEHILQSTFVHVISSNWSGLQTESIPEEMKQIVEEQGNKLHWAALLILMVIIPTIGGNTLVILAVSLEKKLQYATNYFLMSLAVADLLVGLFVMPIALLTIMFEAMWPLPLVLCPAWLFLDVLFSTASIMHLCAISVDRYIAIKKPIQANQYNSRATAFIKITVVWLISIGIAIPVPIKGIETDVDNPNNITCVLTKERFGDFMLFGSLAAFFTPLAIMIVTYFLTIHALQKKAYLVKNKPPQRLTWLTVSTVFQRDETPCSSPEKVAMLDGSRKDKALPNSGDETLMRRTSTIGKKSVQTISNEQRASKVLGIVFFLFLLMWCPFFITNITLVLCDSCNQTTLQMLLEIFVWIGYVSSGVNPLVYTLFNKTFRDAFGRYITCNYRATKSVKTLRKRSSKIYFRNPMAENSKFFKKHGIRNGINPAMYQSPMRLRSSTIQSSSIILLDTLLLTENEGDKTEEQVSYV
Note: assay procedure not described here.

Voltage-gated inwardly rectifying potassium channel KCNH2, sequence (Q12809 whole entry): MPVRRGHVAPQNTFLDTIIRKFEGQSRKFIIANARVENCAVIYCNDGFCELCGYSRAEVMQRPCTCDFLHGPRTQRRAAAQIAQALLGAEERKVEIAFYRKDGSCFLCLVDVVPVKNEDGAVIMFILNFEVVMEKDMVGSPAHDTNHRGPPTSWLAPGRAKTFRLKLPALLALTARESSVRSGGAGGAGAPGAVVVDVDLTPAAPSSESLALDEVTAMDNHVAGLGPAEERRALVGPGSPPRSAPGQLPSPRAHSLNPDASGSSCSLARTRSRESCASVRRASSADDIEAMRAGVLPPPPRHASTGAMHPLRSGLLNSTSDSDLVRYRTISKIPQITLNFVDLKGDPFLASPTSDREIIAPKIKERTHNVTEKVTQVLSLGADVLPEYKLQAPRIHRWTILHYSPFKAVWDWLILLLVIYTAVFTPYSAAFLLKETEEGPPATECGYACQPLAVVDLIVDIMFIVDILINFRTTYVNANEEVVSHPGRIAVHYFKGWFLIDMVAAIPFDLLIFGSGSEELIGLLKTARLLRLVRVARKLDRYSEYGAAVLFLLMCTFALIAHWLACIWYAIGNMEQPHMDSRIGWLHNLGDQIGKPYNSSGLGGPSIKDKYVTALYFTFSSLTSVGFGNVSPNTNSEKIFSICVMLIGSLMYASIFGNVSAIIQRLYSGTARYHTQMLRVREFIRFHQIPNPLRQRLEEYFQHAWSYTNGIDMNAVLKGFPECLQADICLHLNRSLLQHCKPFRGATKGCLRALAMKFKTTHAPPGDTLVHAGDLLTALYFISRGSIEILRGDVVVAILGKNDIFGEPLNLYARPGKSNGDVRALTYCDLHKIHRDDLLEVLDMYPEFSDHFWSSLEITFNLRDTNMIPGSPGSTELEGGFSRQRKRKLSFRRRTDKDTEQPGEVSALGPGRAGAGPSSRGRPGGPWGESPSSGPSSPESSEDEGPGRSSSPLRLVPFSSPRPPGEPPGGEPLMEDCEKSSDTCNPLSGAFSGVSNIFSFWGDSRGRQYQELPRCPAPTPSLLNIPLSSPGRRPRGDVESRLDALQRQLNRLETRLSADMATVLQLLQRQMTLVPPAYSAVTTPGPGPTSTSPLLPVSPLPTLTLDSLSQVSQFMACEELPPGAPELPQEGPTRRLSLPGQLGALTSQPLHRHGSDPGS
Bile salt export pump, sequence (O95342 whole entry): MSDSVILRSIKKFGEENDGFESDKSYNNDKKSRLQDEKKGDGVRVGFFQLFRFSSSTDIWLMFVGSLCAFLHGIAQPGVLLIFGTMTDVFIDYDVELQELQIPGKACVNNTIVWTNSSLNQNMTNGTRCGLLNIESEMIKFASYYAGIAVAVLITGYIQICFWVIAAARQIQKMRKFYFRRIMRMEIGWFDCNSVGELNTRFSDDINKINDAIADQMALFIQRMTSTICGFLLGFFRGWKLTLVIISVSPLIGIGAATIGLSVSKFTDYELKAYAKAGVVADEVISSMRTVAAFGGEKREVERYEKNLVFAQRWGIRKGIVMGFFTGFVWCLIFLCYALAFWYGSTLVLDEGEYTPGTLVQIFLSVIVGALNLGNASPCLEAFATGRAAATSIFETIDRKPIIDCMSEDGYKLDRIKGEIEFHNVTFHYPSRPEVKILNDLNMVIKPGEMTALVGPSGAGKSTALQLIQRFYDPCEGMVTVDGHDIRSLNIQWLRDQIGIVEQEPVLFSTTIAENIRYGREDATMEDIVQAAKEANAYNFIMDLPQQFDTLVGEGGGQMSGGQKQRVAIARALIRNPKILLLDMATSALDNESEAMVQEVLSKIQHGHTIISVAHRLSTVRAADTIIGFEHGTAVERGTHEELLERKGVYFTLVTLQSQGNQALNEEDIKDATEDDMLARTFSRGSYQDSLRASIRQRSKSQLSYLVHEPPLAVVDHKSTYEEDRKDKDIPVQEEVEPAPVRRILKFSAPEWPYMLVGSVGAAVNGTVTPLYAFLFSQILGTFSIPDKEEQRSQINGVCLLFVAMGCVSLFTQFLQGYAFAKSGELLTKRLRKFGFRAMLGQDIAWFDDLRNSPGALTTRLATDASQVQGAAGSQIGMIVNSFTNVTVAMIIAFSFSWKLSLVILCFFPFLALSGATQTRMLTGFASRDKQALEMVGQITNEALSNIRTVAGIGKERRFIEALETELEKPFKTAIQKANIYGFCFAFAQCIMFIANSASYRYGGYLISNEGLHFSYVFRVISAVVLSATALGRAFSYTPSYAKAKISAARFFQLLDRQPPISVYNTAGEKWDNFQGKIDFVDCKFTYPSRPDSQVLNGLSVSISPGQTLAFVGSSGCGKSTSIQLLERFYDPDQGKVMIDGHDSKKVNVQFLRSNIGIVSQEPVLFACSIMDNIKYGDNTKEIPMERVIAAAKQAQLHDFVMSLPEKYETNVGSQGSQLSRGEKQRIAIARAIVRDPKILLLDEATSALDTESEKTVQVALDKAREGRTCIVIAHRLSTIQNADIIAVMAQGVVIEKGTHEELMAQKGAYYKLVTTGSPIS

Compound	AC50 (Bile salt export pump) [µM]	AC50 [1] [µM]	further results
O=C1c2c(O)c(=O)ccn2N([C@@H]2c3ccccc3SCc3c2ccc(F)c3F)[C@@H]2COCCN12 [BALOXAVIR]	24	> 30	
CN1CCCC(CN2c3ccccc3Sc3ccccc32)C1 (stereo not drawn) [MEPAZINE]	100	3.77	
OC[C@@H](O)[C@@H](O)[C@H](O)[C@H](O)CO [MANNITOL]	> 300		
C#C[C@]1(O)CC[C@H]2[C@@H]3CCC4=CC(=O)CC[C@@H]4[C@H]3CC[C@@]21CC [LEVONORGESTREL]	94	> 30	
CCOC(=O)c1ccc(O)cc1 [ETHYLPARABEN]	> 300	> 30	
C[N+](C)(C)CCCCCCCCCC[N+](C)(C)C [DECAMETHONIUM]		> 30	
CC(C)OC(=O)[C@H](C)N[P@](=O)(OC[C@H]1O[C@@H](n2ccc(=O)[nH]c2=O)[C@](C)(F)[C@@H]1O)Oc1ccccc1 [SOFOSBUVIR]	270	> 30	
C[N+]1(C)[C@@H]2C[C@@H](OC(=O)[C@H](CO)c3ccccc3)C[C@H]1[C@@H]1O[C@@H]12 [METHSCOPOLAMINE]	> 300	> 30	
O=C(COc1ccc(Cl)cc1)N1CCN(Cc2ccc3c(c2)OCO3)CC1 [FIPEXIDE]	48	12	
COc1cc(Nc2c(C#N)cnc3cc(OCCCN4CCN(C)CC4)c(OC)cc23)c(Cl)cc1Cl [BOSUTINIB]			AC50 [2]: > 10 µM; AC50 [3]: > 10 µM; AC50 [4]: 1 µM; AC50 [5]: 8.75 µM; AC50 (Adenosine receptor A3): 10.3 µM; AC50 [6]: > 30 µM; AC50 (Motilin receptor): > 10 µM; AC50 [7]: > 30 µM
CC(=O)Oc1c(C)cc(OCC(O)CNC(C)C)c(C)c1C (stereo not drawn) [METIPRANOLOL]		> 30	
CC1(C)O[C@@H]2C[C@H]3[C@@H]4C[C@H](F)C5=CC(=O)CC[C@]5(C)[C@H]4[C@@H](O)C[C@]3(C)[C@]2(C(=O)CO)O1 [FLURANDRENOLIDE]		> 30	
CC(=O)OCC(=O)[C@@]1(O)CC[C@H]2[C@@H]3CCC4=CC(=O)CC[C@]4(C)[C@H]3C(=O)C[C@@]21C [CORTISONE ACETATE]	> 300		AC50 [2]: > 30 µM; AC50 [3]: > 30 µM; AC50 [4]: > 30 µM; AC50 [8]: > 30 µM; AC50 [7]: > 30 µM
CN(C)C(=O)Oc1ccc[n+](C)c1 [PYRIDOSTIGMINE]	> 300		
CC(O)CO (stereo not drawn) [PROPYLENE GLYCOL]	> 300	> 30	
CCC(=O)O[C@H]1[C@H](O[C@@H]2[C@@H](C)[C@H](O[C@H]3C[C@@](C)(OC)[C@@H](O)[C@H](C)O3)[C@@H](C)C(=O)O[C@H](CC)[C@@](C)(O)[C@H](O)[C@@H](C)C(=O)[C@H](C)C[C@@]2(C)O)O[C@H](C)C[C@@H]1N(C)C [ERYTHROMYCIN PROPIONATE]	> 300		
CCOC(=O)N[C@@H]1CC[C@@H]2[C@@H](C1)C[C@H]1C(=O)O[C@H](C)[C@H]1[C@H]2/C=C/c1ccc(-c2cccc(F)c2)cn1 [VORAPAXAR]	2.2	3.9	
